Broadly, the EC50 is the concentration that produces a half-maximal response.

Data on 1 compound can be found in patent US20250034186A1, “ANTIVIRAL COMPOUNDS” (priority 2020, published 2025).

Data set [1] deals with Dengue 2, New Guinea strain (NGC). Briefly: DENV-2 moDC EC50. In kind it is cell-based. The conditions noted are these: Dengue virus, Dendritic cell; human monocyte-derived dendritic cells, 48 hours, qPCR. As to the method:
Human monocyte-derived dendritic cells (moDCs) were derived from CD14+ monocytes (AllCells) cultured in Human Mo-DC Differentiation medium containing GM-CSF and IL-4 (Miltenyi Biotec). On day 7, moDCs were harvested by mechanical disruption, washed and suspended in serum-free RPMI. moDCs were infected with Vero-derived Dengue 2, New Guinea strain (NGC) at a MOI=0.1 for two hours in serum-free RPMI with gentle agitation at 37° C. Cells were washed and resuspended in 10% serum-containing RPMI (Gibco, supplemented with sodium pyruvate, NEAA, Penicillin-Streptomycin). 10^5 cells were plated in triplicate in 96-well plates with compounds dispensed at graded doses (Hewlett-Packard D300 Digital Dispenser). All wells were normalized to 0.25% DMSO. At 48 hours, cells were washed with 1×PBS and all supernatants removed. Total RNA was extracted using RNEasy 96 plates (Qiagen) and used to generate first-strand cDNA using XLT cDNA 5× Supermix (QuantaBio). cDNA was used as a template in a Taqman qPCR duplex reaction specific to DENV2 viral and GAPDH gene expression. EC50 values were determined using Prism Graphpad software, with normalization to a positive control and no compound negative control wells.

In data set [2] the test system is HRVc25 replicon. Briefly: HRVc25 HeLa replicon EC50. In kind it is cell-based. To be noted: Human rhinovirus sp., HRV25, H1-HeLa, 48 h, read-out: HRV25 Rep EC50. Here is the method: First, HRV replicon RNA is prepared. 5 μg of DNA Template (HRVc15 or HRVc25) is linearized with 2 μL of MluI enzyme in NEB buffer-3 in a final volume of 25 μL for 3 hours at 37° C. Following incubation, linearized DNA is purified on a PCR purification column and the following in vitro transcription is performed using the following conditions: 10 μL of RiboMAX Express T7 2× buffer, 1-8 μL of linear DNA template (1 μg), 0-7 μL nuclease free water, 2 μL enzyme mix T7 express. The final volume of 20 μL is mixed and incubated at 37° C. for 30 min. Following incubation, 1 μL of RQ1 RNase free DNase is added and the mixture is incubated at 37° C. for 15 min. The resulting RNA is then purified with the MegaClear Kit (Gibco Life Technologies Cat #11835-030) and is eluted two times with 50 μL of elution buffer at 95° C. […] Replicon activity is then measured by a Renilla-Glo Luciferase Assay system. Prior to signal quantification, plates are removed from incubators and are allowed to equilibrate to 25° C. after 50 uL is removed from each well. […] Plates are then incubated for 20 min at 25° C. under gentle agitation and luciferase signal are determined with a 0.1 second detection setting using an EnVision luciferase quantification reader.

Data set [3] can be described thus: NHBE in-vitro intracellular triphosphate formation. In kind it is in vitro ADME, human. To be noted: 10 μM, up to 26 h, compared to compound 2 and/or 6 (FIG. 1). Here is the method: In-vitro intracellular triphosphate formation was measured for the compound of Formula I and compound 6 using the following protocol. Normal human bronchial airway epithelial cells (NHBEs) (0.25 million cells/well) were continuously incubated with 10 μM of compound for 26 hours. At select time points (2, 4, 6, and 26 h), the extracellular medium was removed from the well and the cells were washed twice with 2 mL of ice-cold 0.9% normal saline and extracted into 0.5 mL ice-cold 70% methanol containing 100 nM 2-chloro-adenosine-5′-triphosphate (Sigma-Aldrich, St. Louis, MO) as an internal standard. Samples were stored overnight at −20° C. to facilitate nucleotide extraction, centrifuged at 15,000×g for 15 minutes and then supernatant was transferred to clean tubes for drying in a MiVac Duo concentrator (Genevac, Gardiner, NY). Dried samples were then reconstituted in mobile phase A containing 3 mM ammonium formate (pH 5.0) with 10 mM dimethylhexylamine (DMHA) in water for analysis by LC-MS/MS.

The test system of data set [4] is Dengue serotype 2 New Guinea C (NGC) strain. Briefly: DENV-2 Huh-7 EC50. The conditions noted are these: Dengue virus, Huh7 cells, 48 hours, qPCR. In kind it is cell-based. As to the method: Huh7 (Human hepatocarcinoma 7) cells were maintained in 10% FCS-containing DMEM complete media. On the day of the assay, cells were trypsinized (0.1% Trypsin-EDTA), washed and infected for 2 hours in serum-free DMEM with Dengue serotype 2 New Guinea C (NGC) strain at MOI=0.1 with gentle agitation at 37° C. After 2 hours, cells were washed with serum-free media and suspended in 10% FCS-containing DMEM (Gibco, supplemented with sodium pyruvate, NEAA, Penicillin-Streptomycin). […] were plated in triplicate in 96-well plates with compounds dispensed at graded doses (Hewlett-Packard D300 Digital Dispenser). All wells were normalized to 0.25% DMSO. At 48 hours, cells were washed with 1×PBS and all supernatants removed. Total RNA was extracted using RNEasy 96 plates (Qiagen) and used to generate first-strand cDNA using XLT cDNA 5× Supermix (QuantaBio). cDNA was used as a template in a Taqman qPCR duplex reaction specific to DENV2 viral and GAPDH gene expression. EC50 values were determined using Prism Graphpad software, with normalization to a positive control and no compound negative control wells.
On the technique in general: Quantitative PCR measures a nucleic acid by following its amplification.

Where only a bound is given, the exact number is not on record here.

Consider `C[C@H](N[P@](=O)(OC[C@@]1(C#N)O[C@@H](c2ccc3c(N)ncnn23)[C@H](O)[C@@H]1O)Oc1ccccc1)C(=O)OC1CCCCC1` [Formula I, cyclohexyl ((S)-(((2R,3S,4R,5S)-5-(4-aminopyrrolo[2,1-f][1,2,4]triazin-7-yl)-2-cyano-3,4-dihydroxytetrahydrofuran-2-yl)methoxy)(phenoxy)phosphoryl)-L-alaninate], for which the EC50 in data set [1] is over 6.19 µM; in data set [2], 0.007 µM; in data set [4] it was 1.63 µM. For the same compound, in data set [3], the “in-vitro intracellular NTP formation in NHBEs” value is on record as “equal to or better”.
